{"source": "patent US20100267561A1", "about": "“HERBICIDAL PYRIDAZINONE DERIVATIVES” (priority 2007, published 2010)", "test_in_all_cases": "Test B pre-/postemergence plant response", "format_in_all_cases": "in vivo", "key": {"[1]": {"test_system": "Italian ryegrass (Lolium multiflorum)", "details": "for Ryegrass, Italian plant response rating: 8 g ai/ha", "outline": "(§1)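 Visual scoring from 0 (no effect) to 100 (complete control) against untreated controls was done 13 to 15 days after greenhouse treatment. Chemicals were formulated in a surfactant-containing non-phytotoxic solvent and applied to soil preemergence or to 1- to 4-leaf (2-18 cm) plants postemergence.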"}, "[2]": {"test_system": "Russian thistle (Salsola iberica)", "details": "Preemergence", "outline": "as §1"}, "[3]": {"test_system": "bermudagrass (Cynodon dactylon)", "details": "for Bermudagrass plant response rating: 8 g ai/ha", "outline": "as §1"}, "[4]": {"test_system": "corn (Zea mays)", "details": "for Corn plant response rating: 8 g ai/ha", "outline": "as §1"}, "[5]": {"test_system": "downy bromegrass (Bromus tectorum)", "details": "for Bromegrass, Downy plant response rating: 8 g ai/ha", "outline": "as §1"}, "[6]": {"test_system": "eastern black (E.B.) nightshade (Solanum ptycanthum)", "details": "Preemergence", "outline": "as §1"}, "[7]": {"test_system": "green foxtail (Setaria viridis)", "details": "for Foxtail, Green plant response rating: 8 g ai/ha", "outline": "as §1"}, "[8]": {"test_system": "kochia (Kochia scoparia)", "details": "for Kochia plant response rating: 8 g ai/ha", "outline": "as §1"}, "[9]": {"test_system": "morningglory (Ipomoea coccinea)", "details": "for Morningglory plant response rating: 8 g ai/ha", "outline": "as §1"}, "[10]": {"test_system": "pigweed (Amaranthus retroflexus)", "details": "for Pigweed plant response rating: 8 g ai/ha", "outline": "as §1"}, "[11]": {"test_system": "soybean (Glycine max)", "details": "for Soybean plant response rating: 8 g ai/ha", "outline": "as §1"}, "[12]": {"test_system": "surinam grass (Brachiaria decumbens)", "details": "for Surinam Grass plant response rating: 8 g ai/ha", "outline": "as §1"}, "[13]": {"test_system": "velvetleaf (Abutilon theophrasti)", "details": "for Velvetleaf plant response rating: 8 g ai/ha", "outline": "as §1"}, "[14]": {"test_system": "woolly cupgrass (Eriochloa villosa)", "details": "for Cupgrass, Woolly plant response rating: 8 g ai/ha", "outline": "as §1"}, "[15]": {"details": "Postemergence, 16 g ai/ha, scale 0 to 100"}, "[16]": {"details": "Postemergence, 31 g ai/ha, scale 0 to 100, 0 no effect, 100 complete control"}, "[17]": {"details": "Postemergence, 62 g ai/ha, scale 0 to 100, 0 no effect, 100 complete control"}, "[18]": {"details": "Preemergence, 16 g ai/ha, scale 0 to 100 (0 no effect, 100 complete control)"}, "[19]": {"details": "Preemergence, 31 g ai/ha, scale 0 to 100 (0 no effect, 100 complete control)"}, "[20]": {"details": "Preemergence, 62 g ai/ha, scale 0 to 100"}, "[21]": {"details": "31 g ai/ha, scale 0 to 100 (0 no effect, 100 complete control)"}, "[22]": {"details": "Preemergence, 31 g ai/ha, 0 to 100 scale, 0 no effect, 100 complete control"}, "[23]": {"details": "Preemergence, 62 g ai/ha, 0 to 100 scale, 0 no effect, 100 complete control"}}}
{"compound": "CCc1cc(-c2ccc(Cl)cc2)nn1-c1c(OC(=O)OC(C)C)cnn(C)c1=O", "note": "[Compound 41]", "values": [{"measurement": "Ryegrass, Italian plant response rating", "setting": "[1]; postemergence, 0-100 scale", "result": 90}, {"measurement": "Plant response rating, Ryegrass, Italian", "setting": "[1]; [15]", "result": 98}, {"measurement": "Plant response rating, Ryegrass, Italian", "setting": "[1]; [16]", "result": 100}, {"measurement": "Plant response rating, Ryegrass, Italian", "setting": "[1]; [17]", "result": 100}, {"measurement": "Plant response rating, Ryegrass, Italian", "setting": "[1]; [18]", "result": 85}, {"measurement": "Plant response rating, Ryegrass, Italian", "setting": "[1]; [19]", "result": 100}, {"measurement": "Plant response rating, Ryegrass, Italian", "setting": "[1]; [20]", "result": 100}, {"measurement": "Ryegrass, Italian plant response rating", "setting": "[1]; Preemergence, scale 0 to 100", "result": 85}, {"measurement": "Plant response rating, Russian Thistle", "setting": "[2]; [21]", "result": 0}, {"measurement": "Plant response rating, Russian Thistle", "setting": "[2]; 62 g ai/ha, scale 0 to 100", "result": 0}, {"measurement": "Bermudagrass plant response rating", "setting": "[3]; postemergence, 0-100 scale", "result": 0}, {"measurement": "Plant response rating, Bermudagrass", "setting": "[3]; [15]", "result": 0}, {"measurement": "Plant response rating, Bermudagrass", "setting": "[3]; [16]", "result": 25}, {"measurement": "Plant response rating, Bermudagrass", "setting": "[3]; [17]", "result": 95}, {"measurement": "Bermudagrass plant response rating", "setting": "[3]; Preemergence, scale 0 to 100 (0 no effect, 100 complete control)", "result": 0}, {"measurement": "Plant response rating, Bermudagrass", "setting": "[3]; [18]", "result": 0}, {"measurement": "Plant response rating, Bermudagrass", "setting": "[3]; [22]", "result": 0}, {"measurement": "Plant response rating, Bermudagrass", "setting": "[3]; [20]", "result": 0}, {"measurement": "Corn plant response rating", "setting": "[4]; postemergence, 0-100 scale", "result": 85}, {"measurement": "Plant response rating, Corn", "setting": "[4]; [15]", "result": 85}, {"measurement": "Plant response rating, Corn", "setting": "[4]; [16]", "result": 95}, {"measurement": "Plant response rating, Corn", "setting": "[4]; [17]", "result": 95}, {"measurement": "Plant response rating, Corn", "setting": "[4]; [18]", "result": 65}, {"measurement": "Plant response rating, Corn", "setting": "[4]; [22]", "result": 85}, {"measurement": "Plant response rating, Corn", "setting": "[4]; [20]", "result": 95}, {"measurement": "Corn plant response rating", "setting": "[4]; Preemergence, scale 0 to 100", "result": 45}, {"measurement": "Bromegrass, Downy plant response rating", "setting": "[5]; postemergence, 0-100 scale", "result": 30}, {"measurement": "Plant response rating, Bromegrass, Downy", "setting": "[5]; [15]", "result": 50}, {"measurement": "Plant response rating, Bromegrass, Downy", "setting": "[5]; [16]", "result": 60}, {"measurement": "Plant response rating, Bromegrass, Downy", "setting": "[5]; [17]", "result": 85}, {"measurement": "Plant response rating, Bromegrass, Downy", "setting": "[5]; [18]", "result": 70}, {"measurement": "Plant response rating, Bromegrass, Downy", "setting": "[5]; [22]", "result": 75}, {"measurement": "Plant response rating, Bromegrass, Downy", "setting": "[5]; [20]", "result": 80}, {"measurement": "Bromegrass, Downy plant response rating", "setting": "[5]; Preemergence, scale 0 to 100", "result": 70}, {"measurement": "Plant response rating, Nightshade, E. B.", "setting": "[6]; 16 g ai/ha, scale 0 to 100 (0 no effect, 100 complete control)", "result": 0}, {"measurement": "Plant response rating, Nightshade, E. B.", "setting": "[6]; [21]", "result": 0}, {"measurement": "Plant response rating, Nightshade, E. B.", "setting": "[6]; 62 g ai/ha, scale 0 to 100", "result": 0}, {"measurement": "Nightshade, E. B. plant response rating", "setting": "[6]; 8 g ai/ha, scale 0 to 100", "result": 0}, {"measurement": "Foxtail, Green plant response rating", "setting": "[7]; postemergence, 0-100 scale", "result": 85}, {"measurement": "Plant response rating, Foxtail, Green", "setting": "[7]; [15]", "result": 100}, {"measurement": "Plant response rating, Foxtail, Green", "setting": "[7]; [16]", "result": 100}, {"measurement": "Plant response rating, Foxtail, Green", "setting": "[7]; [17]", "result": 100}, {"measurement": "Plant response rating, Foxtail, Green", "setting": "[7]; [18]", "result": 100}, {"measurement": "Plant response rating, Foxtail, Green", "setting": "[7]; [22]", "result": 100}, {"measurement": "Plant response rating, Foxtail, Green", "setting": "[7]; [20]", "result": 100}, {"measurement": "Foxtail, Green plant response rating", "setting": "[7]; Preemergence, scale 0 to 100", "result": 100}, {"measurement": "Kochia plant response rating", "setting": "[8]; postemergence, 0-100 scale", "result": 0}, {"measurement": "Plant response rating, Kochia", "setting": "[8]; [15]", "result": 0}, {"measurement": "Plant response rating, Kochia", "setting": "[8]; [16]", "result": 0}, {"measurement": "Plant response rating, Kochia", "setting": "[8]; [17]", "result": 0}, {"measurement": "Plant response rating, Kochia", "setting": "[8]; [18]", "result": 0}, {"measurement": "Plant response rating, Kochia", "setting": "[8]; [22]", "result": 0}, {"measurement": "Plant response rating, Kochia", "setting": "[8]; [20]", "result": 0}, {"measurement": "Kochia plant response rating", "setting": "[8]; Preemergence, scale 0 to 100", "result": 0}, {"measurement": "Morningglory plant response rating", "setting": "[9]; postemergence, 0-100 scale", "result": 0}, {"measurement": "Plant response rating, Morningglory", "setting": "[9]; [15]", "result": 0}, {"measurement": "Plant response rating, Morningglory", "setting": "[9]; [16]", "result": 0}, {"measurement": "Plant response rating, Morningglory", "setting": "[9]; [17]", "result": 0}, {"measurement": "Plant response rating, Morningglory", "setting": "[9]; [18]", "result": 0}, {"measurement": "Plant response rating, Morningglory", "setting": "[9]; [19]", "result": 0}, {"measurement": "Plant response rating, Morningglory", "setting": "[9]; [20]", "result": 0}, {"measurement": "Morningglory plant response rating", "setting": "[9]; Preemergence, scale 0 to 100", "result": 0}, {"measurement": "Pigweed plant response rating", "setting": "[10]; postemergence, 0-100 scale", "result": 0}, {"measurement": "Plant response rating, Pigweed", "setting": "[10]; [15]", "result": 0}, {"measurement": "Plant response rating, Pigweed", "setting": "[10]; [16]", "result": 0}, {"measurement": "Plant response rating, Pigweed", "setting": "[10]; [17]", "result": 0}, {"measurement": "Plant response rating, Pigweed", "setting": "[10]; [18]", "result": 0}, {"measurement": "Plant response rating, Pigweed", "setting": "[10]; [19]", "result": 0}, {"measurement": "Plant response rating, Pigweed", "setting": "[10]; [20]", "result": 0}, {"measurement": "Pigweed plant response rating", "setting": "[10]; Preemergence, scale 0 to 100", "result": 0}, {"measurement": "Soybean plant response rating", "setting": "[11]; postemergence, 0-100 scale", "result": 0}, {"measurement": "Plant response rating, Soybean", "setting": "[11]; [15]", "result": 0}, {"measurement": "Plant response rating, Soybean", "setting": "[11]; [17]", "result": 0}, {"measurement": "Plant response rating, Soybean", "setting": "[11]; [18]", "result": 0}, {"measurement": "Plant response rating, Soybean", "setting": "[11]; [19]", "result": 0}, {"measurement": "Plant response rating, Soybean", "setting": "[11]; [20]", "result": 0}, {"measurement": "Soybean plant response rating", "setting": "[11]; Preemergence, scale 0 to 100", "result": 0}, {"measurement": "Surinam Grass plant response rating", "setting": "[12]; postemergence, 0-100 scale", "result": 100}, {"measurement": "Plant response rating, Surinam Grass", "setting": "[12]; [15]", "result": 100}, {"measurement": "Plant response rating, Surinam Grass", "setting": "[12]; [17]", "result": 100}, {"measurement": "Plant response rating, Surinam Grass", "setting": "[12]; [18]", "result": 40}, {"measurement": "Plant response rating, Surinam Grass", "setting": "[12]; [19]", "result": 55}, {"measurement": "Plant response rating, Surinam Grass", "setting": "[12]; [23]", "result": 100}, {"measurement": "Surinam Grass plant response rating", "setting": "[12]; Preemergence, scale 0 to 100", "result": 0}, {"measurement": "Velvetleaf plant response rating", "setting": "[13]; postemergence, 0-100 scale", "result": 0}, {"measurement": "Plant response rating, Velvetleaf", "setting": "[13]; [15]", "result": 0}, {"measurement": "Plant response rating, Velvetleaf", "setting": "[13]; [17]", "result": 0}, {"measurement": "Plant response rating, Velvetleaf", "setting": "[13]; [18]", "result": 0}, {"measurement": "Plant response rating, Velvetleaf", "setting": "[13]; [19]", "result": 0}, {"measurement": "Plant response rating, Velvetleaf", "setting": "[13]; [23]", "result": 0}, {"measurement": "Velvetleaf plant response rating", "setting": "[13]; Preemergence, scale 0 to 100", "result": 0}, {"measurement": "Cupgrass, Woolly plant response rating", "setting": "[14]; postemergence, 0-100 scale", "result": 95}, {"measurement": "Plant response rating, Cupgrass, Woolly", "setting": "[14]; [15]", "result": 100}, {"measurement": "Plant response rating, Cupgrass, Woolly", "setting": "[14]; [16]", "result": 100}, {"measurement": "Plant response rating, Cupgrass, Woolly", "setting": "[14]; [17]", "result": 100}, {"measurement": "Plant response rating, Cupgrass, Woolly", "setting": "[14]; [18]", "result": 0}, {"measurement": "Plant response rating, Cupgrass, Woolly", "setting": "[14]; [22]", "result": 0}, {"measurement": "Plant response rating, Cupgrass, Woolly", "setting": "[14]; [20]", "result": 75}, {"measurement": "Cupgrass, Woolly plant response rating", "setting": "[14]; Preemergence, scale 0 to 100", "result": 0}]}
